# Laboratory results taken from a melting point compilation (Tetko et al.; mined from patent text by program, amines drawn as free bases though some values may be those of a salt).
# Residues, ends and D or L forms follow the SMILES beside them. *: point of attachment. Cbz = O=C(OCc1ccccc1)*
row,SMILES,melting point [°C]
1,CC(C)c1ccc(N(Cc2ccc(N(C)C)cc2)C(=O)C2CCCc3ccc(C(C)C)cc32)cc1 (centres undefined),123 to 125
2,CCOC(=O)CCc1ccc(NC(=O)c2csc(NC(=O)NCc3ccccc3)n2)cc1,194
3,O=C(Cn1cccc(O)c1=O)NCCCCCCNC(=O)Cn1cccc(O)c1=O,240 to 242
4,CC1CN2C(=O)c3nc[nH]c3N(Cc3ccc(Cl)cc3)C2=N1 (centres undefined),259 to 260
5,COc1ccc(CSc2nnc(-c3ccn4ncnc4c3)o2)cc1C(F)(F)F,178 to 179
6,COC(=O)[C@@H](NC(=O)OC(C)(C)C)[C@H](O)c1ccccc1,101 to 102
7,CCOC(=O)C(Cc1ccc(C(=O)C(C)(C)C)cc1)Cc1ccc(C(=O)C(C)(C)C)cc1,60 to 63
8,Nc1ccc(S(=O)(=O)c2cc(Cl)nc(Cl)c2)cc1,190 to 192
9,Cc1cc(C)c(Oc2cc(Nc3ccc(C#N)cc3)c([N+](=O)[O-])cc2[N+](=O)[O-])c(C)c1,132
10,Clc1cccc(Cl)c1CN1CCNc2ncc(I)cc21,> 200
11,O=C1OC(=O)c2cc3c(cc21)OCO3,189 to 191
12,CCN(CC)CCC(=O)Nc1ccc([N+](=O)[O-])cc1,86 to 88
13,O=C(Nc1cccc([N+](=O)[O-])c1)NC1N=C(c2ccccc2F)c2ccccc2N(CC(=O)N2CC3CCC(CC3)C2)C1=O (racemic),180 to 187
14,Cc1nc(-n2ccc(C(F)(F)F)cc2=O)sc1C(=O)NCc1ccccc1,197 to 198
15,Oc1nc2ccc3nccnc3c2nc1O,> 300
16,COc1ncccc1NC(=NC#N)NC(NC(=O)c1cccc(Cl)c1)C(C)(Cl)Cl (centres undefined),115 to 116
17,CCCCOc1ccc(-c2ccc(-c3ccc(-c4ccc(-c5ccc(OCCCC)cc5)s4)c4nsnc34)s2)cc1,330 to 331
18,CN1C(=O)[C@H](NC(=O)CCc2ccc(Cl)cc2Cl)N=C(c2ccccc2)c2cc(NS(C)(=O)=O)ccc21,130 to 148
19,COC(=O)C(CC(C)C)NC(=O)C(CC(N)=O)NC(=O)OCc1ccccc1 (stereo not drawn) (Cbz-Asn-Leu-OMe; configuration not given here),191 to 193
20,COC(=O)c1c2snnc2nn1C,115 to 121
21,CC12CC(C(F)F)C3C4CCC(=O)C=C4CCC3C1CCC2=O (centres undefined),149 to 151

row,SMILES,melting point [°C]
1,COc1cc(OC)c2c(=O)[nH]c(-c3cc(C)c(OCCO)c(C)c3)nc2n1,255 to 256
2,O=S(=O)(CC(O)(CBr)c1cccc(F)c1)c1ccccc1Cl (centres undefined),121
3,C=CCc1ccc2oc(CC)c(C)c2c1O,38 to 40
4,CC(=O)c1ncn2c1CN=C(c1ccccc1Cl)c1cc(Cl)ccc1-2,214 to 216
5,CCC1=Nc2ccc(OCCN3C(=O)c4ccccc4C3=O)cc2C(=O)C1,168 to 171
6,Nc1ncc(-c2noc(-c3cnn4c(C(F)(F)F)cc(-c5ccc(Cl)cc5)nc34)n2)cn1,268
7,CS(=O)(=O)OCCCCC1C(=O)Nc2cc(F)ccc21 (centres undefined),106 to 108
8,CS(=O)c1ccc(-c2nc(S)[nH]c2-c2ccc(S(C)=O)cc2)cc1 (centres undefined),261 to 262
9,CCCCCCCCC(SCCCCCC)C(=O)Nc1c(F)ccc2ncccc12 (centres undefined),74 to 75
10,CNc1cn(-c2cncc(F)c2)nc1C1CC1,118 to 120
11,CC(=O)n1c(C)c(-c2ccccc2)c(=O)n1-c1ncccn1,138 to 140
12,COc1ccc2c(c1C)CCCC2=O,103 to 105
13,COc1ccccc1[C@@]1(O)[C@H](O)CC(c2ccccc2)(c2ccccc2)[C@@H]2CN(C(=O)Cc3ccc(N)cc3)C[C@@H]21 (racemic),188
14,COc1cc(SC2SCC(OC(C)=O)C(OC(C)=O)C2OC(C)=O)cc(OC)c1OC (centres undefined),101
15,C#CCOC(C(=O)O)c1ccc(Cl)cc1 (centres undefined),69 to 70
16,CCCCC1(N(C)C)CCC(c2[nH]c3ccccc3c2C)(c2[nH]c3ccccc3c2CCNC(=O)Nc2ccccc2)CC1 (centres undefined),115 to 120
17,CNC(=S)NS(=O)(=O)c1cc2c(cc1OC)OC(C)(C)C(NC(=O)c1cc(F)ccc1OC)C2 (centres undefined),222
18,CN(C)Cc1cc(C(=O)c2cccs2)cc(C2CCCCC2)c1O,105 to 106
19,Cc1nc2ccccc2n(-c2ccc(N)cc2)c1=O,269 to 271
20,CC1(c2cc3ccccc3[nH]2)CCCCC1,50

# Continued, values first:
row,melting point [°C],SMILES
1,76 to 77,Clc1ccccc1Cc1cccc2[nH]ccc12
2,130 to 133,COC(=O)CCc1cc2cc(Cl)ccc2n1S(=O)(=O)c1ccc(C(C)(C)C)cc1
3,121 to 123,CS(=O)(=O)c1ccc(-c2cc(C(CCCO[N+](=O)[O-])=NO)nn2C2CCCCC2)cc1
4,269,Cc1nc2ncnn2c(O)c1Br
5,277 to 279,NC(=O)c1cnc2c([N+](=O)[O-])cccc2c1Cl
6,105 to 107,CCCCCCCCN(C[C@H]1CC[C@@H](CN(CCCCCCCC)C(=O)Nc2ccc(N(C)C)cc2)CC1)C(=O)Nc1ccc(N(C)C)cc1
7,153 to 154,CCCCOC(=O)Nc1ccc2cnn(Cc3ccc(C(=O)NS(=O)(=O)c4ccccc4)cc3OC)c2c1
8,49 to 51.5,Cn1nnnc1SCCCCSc1ccccn1
9,160 to 162,CCn1ncc2c(NCC3CCCCC3)c3cccc(Br)c3nc21
10,116 to 119,Cc1cn(C(C)(C)C(=O)N(C)C)nc1-c1cccs1
11,117 to 119,[N-]=[N+]=Nc1cc(Cl)nc(-c2ccco2)n1
12,80.1,CC(C)Cc1cccc(-c2nc(C(C)C)n(C)n2)n1
13,144 to 145,CC(=O)Nc1nc(-c2ccc(SCOC(C)=O)cc2)cs1
14,186 to 187,O=C(O)c1cccc(-c2cccc(OCc3ccc(Cl)cc3Cl)n2)c1
15,199 to 202,N#CSc1nc(I)ncc1Br
16,86 to 87,CCOC(=O)C(=Cc1cc(OC)c(OC)cc1OC)C(=O)OCC
17,178 to 180,COc1ccc(NC(=O)c2ccc(COc3ccc4c(c3)CCC(CCN3CCCCC3)C4)cc2)cc1OC (centres undefined)
18,39 to 40,CC(C)CC(=O)c1ccc(Cl)cc1
19,190 to 193,CC(=O)Nc1cccc(NC(=O)C=C2CC(C(=O)O)Nc3cc(Cl)cc(Cl)c32)c1 (racemic)
20,71 to 72,O=C(O)CCCCCc1nc2ccccc2s1
21,178,O=C(O)CCCc1cc2nc(Cl)ccc2n1S(=O)(=O)c1ccc2ncsc2c1
22,198 to 201,O=c1[nH]cnc2c1ncn2[C@@H]1C[C@H](O)[C@@H](O)[C@H]1O (racemic)
23,100,O=CC1CC(n2ccc(=O)[nH]c2=O)OC1COC(c1ccccc1)(c1ccccc1)c1ccccc1 (centres undefined)
24,178 to 180,CCCn1c(COCC)nc2c(N)nc3ccc(OCCNS(C)(=O)=O)cc3c21
25,103 to 104,N[C@@H](Cc1cccc(OC(F)(F)C(F)F)c1)[C@H](O)c1ccc(F)nc1 (racemic)
26,123 to 124,CCOC(=O)Cc1nc(-c2ccc(F)cc2)c(-c2ccc(S(C)(=O)=O)cc2)o1
27,223 to 229,O=c1[nH]cccc1-c1ccccc1
28,238 to 240,CC(C)(C)OC(=O)NCc1cccc(C(=O)O)n1
